Tested on: human MET
Test: MET biochemical kinase assay
Set-up: concentration or dose not given beside the values
Text: (d) MET Biochemical Kinase Assay
A met biochemical kinase assay may be performed for met generally as described above for other kinases by substituting that or the other kinases. In particular, ELISA plates are coated with goat anti-rabbit Fc antibodies, which are used to capture commercially available (from Santa Cruz Biotechnology) rabbit polyclonal antibodies to the cytoplasmic domain of human MET. […] The chimeric receptors, or MET, from these lysates are captured on the antibody coated plates. After washing away extraneous proteins, test compounds are added and an in vitro kinase assay is performed by addition of an appropriate kinase buffer (containing ATP, divalent metal ions, etc.). Incorporation of phosphate into the captured receptors is detected with an anti-phosphotyrosine antibody conjugate with horse radish peroxidase using TMB as a substrate for calorimetric detection.

Going from `O=C1Nc2ccc(CCCl)cc2C1=Cc1cccs1` [10717/G03] to `O=C1Nc2ccc(CCCl)cc2C1=Cc1ccccc1O` [10720/G05], the “Met Kinase % Inhibition” value rises from 4.5% to 37.0%.

Compared with `O=C1Nc2c(Br)cc(Br)cc2C1=Cc1ccc[nH]1` [10717/A09], `Cc1cc(C=C2C(=O)Nc3c(Br)cc(Br)cc32)oc1C` [10730/A11] is higher in “Met Kinase % Inhibition” value: 9.4% for the first, 91.0% for the second.

Compared with `CNS(=O)(=O)c1ccc2c(c1)C(=Cc1ccc(O)c(Br)c1)C(=O)N2` [10734/D09], `CNS(=O)(=O)c1ccc2c(c1)C(=Cc1ccc(O)c(C)c1)C(=O)N2` [10723/D06] is lower in “Met Kinase % Inhibition” value: 88.0% for the first, 60.0% for the second.

Going from `O=C1Nc2ccc(CCCl)cc2C1=Cc1cc2ccccc2o1` [10724/G07] to `O=C1Nc2ccc(CCCl)cc2C1=Cc1ccc([N+](=O)[O-])o1` [10718/G11], the “Met Kinase % Inhibition” value rises from 2.3% to 3.0%.

Going from `Cc1cn(C)cc1C=C1C(=O)Nc2ccc(S(=O)(=O)Nc3ccc(C(F)(F)F)cc3)cc21` [10726/E06] to `Cc1ccc(C=C2C(=O)Nc3ccc(S(=O)(=O)Nc4ccc(C(F)(F)F)cc4)cc32)s1` [10717/E07], the “Met Kinase % Inhibition” value rises from −7.4% to 41.0%.

Compared with `O=C1Nc2ccc(S(=O)(=O)N3CCOCC3)cc2C1=Cc1c[nH]c2ccccc12` [10717/F06], `COc1cccc(C=C2C(=O)Nc3ccc(S(=O)(=O)N4CCOCC4)cc32)c1OC` [10727/F11] is lower in “Met Kinase % Inhibition” value: 49.0% for the first, −3.0% for the second.

Going from `Cc1c(Br)ccc2c1C(=Cc1ccc(F)cc1C(F)(F)F)C(=O)N2` [10719/C11] to `Cc1c(Br)ccc2c1C(=Cc1ccco1)C(=O)N2` [10718/C10], the “Met Kinase % Inhibition” value rises from −5.1% to 4.4%.

Going from `CCOc1ccc(C=C2C(=O)Nc3ccc(CCCl)cc32)cc1OC` [10719/G02] to `COc1ccc(C=C2C(=O)Nc3ccc(CCCl)cc32)cc1OC` [10720/G04], the “Met Kinase % Inhibition” value rises from −2.4% to 5.0%.

Going from `Cc1cc(C=C2C(=O)Nc3ccc(CCCl)cc32)cc(C)c1OCc1ccccc1` [10733/G07] to `CNS(=O)(=O)c1ccc2c(c1)C(=Cc1cc(C)c(OCc3ccccc3)c(C)c1)C(=O)N2` [10733/D07], the “Met Kinase % Inhibition” value falls from 8.5% to −6.8%.

Compared with `CNS(=O)(=O)c1ccc2c(c1)C(=Cc1ccc(Cl)c([N+](=O)[O-])c1)C(=O)N2` [10718/D08], `CNS(=O)(=O)c1ccc2c(c1)C(=Cc1ccc(O)c(C(C)(C)C)c1)C(=O)N2` [10721/D09] is lower in “Met Kinase % Inhibition” value: 2.3% for the first, −4.9% for the second.

Compared with `O=C1Nc2ccc(S(=O)(=O)Nc3ccc(C(F)(F)F)cc3)cc2C1=Cc1c[nH]cn1` [10725/E11], `O=C1Nc2ccc(S(=O)(=O)Nc3ccc(C(F)(F)F)cc3)cc2C1=Cc1ccncc1` [10729/E09] is higher in “Met Kinase % Inhibition” value: 9.6% for the first, 85.0% for the second.

Compared with `COc1cccc(C=C2C(=O)Nc3ccc(CCCl)cc32)c1OC` [10727/G11], `COc1cccc(OC)c1C=C1C(=O)Nc2ccc(CCCl)cc21` [10728/G03] is higher in “Met Kinase % Inhibition” value: −0.8% for the first, 8.8% for the second.

Going from `CC(C)(C)c1cc(C=C2C(=O)Nc3ccc(CCCl)cc32)cc([N+](=O)[O-])c1O` [10722/G02] to `CC(C)(C)c1cc(C=C2C(=O)Nc3ccc(CCCl)cc32)cc(C(C)(C)C)c1O` [10721/G11], the “Met Kinase % Inhibition” value falls from 43.0% to −0.0%.

Going from `CNS(=O)(=O)c1ccc2c(c1)C(=Cc1ccc(N3CCN(C=O)CC3)cc1)C(=O)N2` [10725/D07] to `O=CN1CCN(c2ccc(C=C3C(=O)Nc4ccc(I)cc43)cc2)CC1` [10725/B07], the “Met Kinase % Inhibition” value rises from 37.0% to 74.0%.

Going from `COc1cc(C=C2C(=O)Nc3ccc(S(=O)(=O)N4CCOCC4)cc32)cc(OC)c1OC` [10730/F04] to `COc1ccc(C=C2C(=O)Nc3ccc(S(=O)(=O)N4CCOCC4)cc32)c(OC)c1` [10719/F04], the “Met Kinase % Inhibition” value falls from 36.0% to 3.3%.

First: CNS(=O)(=O)c1ccc2c(c1)C(=Cc1ccccc1O)C(=O)N2 [10720/D05]
Second: CNS(=O)(=O)c1ccc2c(c1)C(=Cc1ccc(O)c(O)c1O)C(=O)N2 [10723/D02]
The “Met Kinase % Inhibition” value of the first is lower: 9.8% for the first, 93.0% for the second.

Going from `COc1c(I)cc(C=C2C(=O)Nc3ccc(CCCl)cc32)cc1C(C)(C)C` [10732/G11] to `CC(C)(C)c1cc(C=C2C(=O)Nc3ccc(I)cc32)cc(Cl)c1O` [10722/B08], the “Met Kinase % Inhibition” value rises from 63.0% to 72.0%.

Going from `CC(C)(C)c1cc(C=C2C(=O)Nc3ccc(CCCl)cc32)cc(C(C)(C)C)c1OCc1ccccc1` [10733/G05] to `CC(C)(C)c1cc(C=C2C(=O)Nc3ccc(I)cc32)cc(C(C)(C)C)c1O` [10721/B11], the “Met Kinase % Inhibition” value rises from 1.8% to 6.7%.

Compared with `CCOC(=O)c1c(C)[nH]c(C=C2C(=O)Nc3ccc(S(=O)(=O)NC)cc32)c1C` [10718/D02], `CNS(=O)(=O)c1ccc2c(c1)C(=Cc1[nH]c(Cl)c(CC(=O)OC)c1C(=O)OC)C(=O)N2` [10725/D09] is lower in “Met Kinase % Inhibition” value: 32.0% for the first, 28.0% for the second.

Compared with `O=C1Nc2ccc(CCCl)cc2C1=Cc1csc([N+](=O)[O-])c1` [10722/G09], `O=C1Nc2ccc(CCCl)cc2C1=Cc1ccc(F)cc1` [10717/G05] is lower in “Met Kinase % Inhibition” value: 51.0% for the first, 4.7% for the second.

Going from `CNS(=O)(=O)c1ccc2c(c1)C(=Cc1ccc(OC)cc1)C(=O)N2` [10726/D11] to `CNS(=O)(=O)c1ccc2c(c1)C(=Cc1cccn1C)C(=O)N2` [10717/D04], the “Met Kinase % Inhibition” value rises from 9.6% to 21.0%.

Compared with `COc1ccc(Br)c(C=C2C(=O)Nc3c(Br)cc(Br)cc32)c1O` [10725/A03], `CC(C)(C)c1cc(C=C2C(=O)Nc3c(Br)cc(Br)cc32)ccc1O` [10721/A09] is lower in “Met Kinase % Inhibition” value: 68.0% for the first, 23.0% for the second.

Compared with `O=C1Nc2ccc(I)cc2C1=Cc1cccnc1` [10729/B08], `Cc1[nH]c(C=C2C(=O)Nc3ccc(I)cc32)c(Br)c1Br` [10717/B11] is higher in “Met Kinase % Inhibition” value: 66.0% for the first, 91.0% for the second.

First: O=C1Nc2ccc(S(=O)(=O)Nc3ccc(C(F)(F)F)cc3)cc2C1=Cc1c(F)cccc1C(F)(F)F [10728/E09]
Second: O=C1Nc2ccc(S(=O)(=O)Nc3ccc(C(F)(F)F)cc3)cc2C1=Cc1ccc(Br)o1 [10726/E05]
The “Met Kinase % Inhibition” value of the first is lower: 40.0% for the first, 71.0% for the second.

Going from `CSc1ccc(C=C2C(=O)Nc3ccc(S(=O)(=O)Nc4ccc(C(F)(F)F)cc4)cc32)cc1` [10729/E04] to `CCN(CC)c1ccc(C=C2C(=O)Nc3ccc(S(=O)(=O)Nc4ccc(C(F)(F)F)cc4)cc32)cc1` [10727/E02], the “Met Kinase % Inhibition” value rises from 9.8% to 28.0%.

First: O=C1Nc2ccc(S(=O)(=O)Nc3ccc(C(F)(F)F)cc3)cc2C1=Cc1cccn1-c1ccc(Cl)cc1 [10724/E09]
Second: O=C1Nc2ccc(S(=O)(=O)Nc3ccc(C(F)(F)F)cc3)cc2C1=Cc1c(Br)cnn1-c1ccc(Cl)cc1 [10725/E10]
The “Met Kinase % Inhibition” value of the first is higher: 27.0% for the first, −4.7% for the second.

Compared with `Cc1c(Br)ccc2c1C(=Cc1nn(C)cc1Cl)C(=O)N2` [10721/C03], `Cc1c(Br)ccc2c1C(=Cc1c(Br)cnn1-c1ccc(Cl)cc1)C(=O)N2` [10725/C10] is lower in “Met Kinase % Inhibition” value: 6.2% for the first, −0.6% for the second.

Compared with `Cc1cc(C)c(C=C2C(=O)Nc3ccc(CCCl)cc32)[nH]1` [10721/G08], `O=C1Nc2ccc(CCCl)cc2C1=Cc1cc2c([nH]1)CCCC2` [10721/G05] is higher in “Met Kinase % Inhibition” value: −2.4% for the first, 8.6% for the second.

First: CCc1c(C)[nH]c(C=C2C(=O)Nc3ccc(S(=O)(=O)Nc4ccc(C(F)(F)F)cc4)cc32)c1C [10719/E05]
Second: COc1cccc(C=C2C(=O)Nc3ccc(S(=O)(=O)Nc4ccc(C(F)(F)F)cc4)cc32)c1OC [10727/E11]
The “Met Kinase % Inhibition” value of the first is higher: 39.0% for the first, −5.4% for the second.

Compared with `O=C1Nc2ccc(S(=O)(=O)Nc3ccc(C(F)(F)F)cc3)cc2C1=Cc1cc(O)c2c(c1O)CCCC2` [10726/E07], `O=C1Nc2ccc(S(=O)(=O)Nc3ccc(C(F)(F)F)cc3)cc2C1=Cc1cc([N+](=O)[O-])cc(CCl)c1O` [10721/E06] is lower in “Met Kinase % Inhibition” value: 84.0% for the first, 81.0% for the second.

First: O=C1Nc2c(Br)cc(Br)cc2C1=Cc1coc2ccc(Cl)cc2c1=O [10730/A06]
Second: CC(C)(C)c1cc(C=C2C(=O)Nc3c(Br)cc(Br)cc32)ccc1OCc1ccccc1 [10732/A06]
The “Met Kinase % Inhibition” value of the first is higher: 61.0% for the first, 5.7% for the second.

First: O=C1Nc2ccc(CCCl)cc2C1=Cc1cc2c3c(c1O)CCCN3CCC2 [10724/G05]
Second: O=C1Nc2ccc(CCCl)cc2C1=Cc1ccc(C(=O)O)cc1 [10722/G05]
The “Met Kinase % Inhibition” value of the first is higher: 61.0% for the first, 9.7% for the second.

First: C=C(C)C1CC=C(C=C2C(=O)Nc3ccc(I)cc32)CC1 (stereo not drawn) [10731/B04]
Second: O=C1Nc2ccc(I)cc2C1=Cc1cc2c(cc1Cl)OCO2 [10727/B06]
The “Met Kinase % Inhibition” value of the first is lower: 71.0% for the first, 91.0% for the second.

Going from `COc1cc(OC)c(C=C2C(=O)Nc3ccc(S(=O)(=O)Nc4ccc(C(F)(F)F)cc4)cc32)c(OC)c1` [10719/E06] to `Cc1cc(C=C2C(=O)Nc3ccc(S(=O)(=O)Nc4ccc(C(F)(F)F)cc4)cc32)cc(C)c1OCc1ccccc1` [10733/E07], the “Met Kinase % Inhibition” value falls from −4.5% to −10.1%.

Compared with `O=C1Nc2ccc(S(=O)(=O)N3CCOCC3)cc2C1=Cc1ccc(Br)cc1` [10717/F08], `O=C1Nc2ccc(S(=O)(=O)N3CCOCC3)cc2C1=Cc1ccc(O)c(O)c1O` [10723/F02] is higher in “Met Kinase % Inhibition” value: 64.0% for the first, 99.0% for the second.

Compared with `O=C1Nc2ccc(S(=O)(=O)N3CCOCC3)cc2C1=Cc1ccc(F)cc1C(F)(F)F` [10719/F11], `Cc1cc(C=C2C(=O)Nc3ccc(S(=O)(=O)N4CCOCC4)cc32)sc1C` [10721/F04] is higher in “Met Kinase % Inhibition” value: 8.7% for the first, 26.0% for the second.

Compared with `Cc1c(Br)ccc2c1C(=Cc1cc(C(C)(C)C)cc(C(C)(C)C)c1O)C(=O)N2` [10723/C11], `CNS(=O)(=O)c1ccc2c(c1)C(=Cc1cc(C(C)(C)C)cc(C(C)(C)C)c1O)C(=O)N2` [10723/D11] is lower in “Met Kinase % Inhibition” value: 47.0% for the first, 42.0% for the second.

With `COC(=O)Cc1c(Cl)[nH]c(C=C2C(=O)Nc3ccc(CCCl)cc32)c1C(=O)OC` [10725/G09] the “Met Kinase % Inhibition” value was 4.7%.

From US7202265B2, “Indolinone combinatorial libraries and related products and methods for the treatment of disease” (Sugen, Inc., priority 1997, dated 2007)
